Measurements as given in patent publication US12077495B2 (priority 2018, dated 2024).

Columns and labels:
[1] = system: proton-coupled transporters (MCTs) endogenously present in tsA201 cells; test: MCT-mediated uptake in tsA201 cells (BCECF pH-sensitive dye); assay type: cell-based; conditions: 2 min, read-out: EC50, concentration-dependent decrease in intracellular pH
Method: Uptake was measured using the cell-permeable pH-sensitive dye 2′,7′-Bis(2-carboxyethyl)-5(6)-carboxyfluorescein acetoxymethyl ester (BCECF-AM) (Molecular Probes), utilizing the endogenous expression of MCTs in tsA201 cells. The day before the assay, cells were plated (50,000 cells/well) in black poly-D-lysin-coated 96-well plates with clear bottom (VWR, Radnor, PA, USA). […] Cells were then washed twice with 100 μl buffer and the cell plate assayed at 37° C. in a FlexStation 3 reader (Molecular Devices).
Cells (tsA201; related to HEK293-T) known to express MCTs were grown in 96-well plates and exposed to compounds and pH-decreased measured for 2 min.

[2] = system: permanent middle cerebral artery occlusion in C57BL/6J mice; test: pMCAO model, behavioural assessment (rotarod, grip strength, Hargreaves); assay type: in vivo; conditions: 175 mg/kg 30 min after pMCAO
Method: To assess sensory-motor impairment, animals were tested in the rotarod, grip strength and Hargreaves tests 2-3 days post-stroke.
The rotarod (LE 8200, Panlab) measures motor performance in rodents by assessing the time during which the animal remains on a rotating rod. The rod rotation accelerates from 0 to 40 rounds per min (rpm) over a time period of 5 min 48 hrs post-stroke, mice were tested in four repeating trials with a 20 min interval (resting time). Prior to surgery, mice were pretrained to stay on the rod for 30 s at 4 rpm. The grip strength meter (BIO-GT-3, BIOSEB) allowed the study of neuromuscular functions in mice by determining the maximum force that is required to make the mouse release its grip.
The mouse is allowed to grasp a metal grid and then pulled backwards in the horizontal plane. The force applied to the grid is recorded as the peak tension. Individual (right and left) and total (both) front paw grip strength was measured before (baseline) and 3 days after pMCAO. Each mouse was tested in five sequential trials and the highest grip strength was recorded as the score. Thermal hyperalgesia (hind paw withdrawal from a normally innocuous heat source) was tested with a Hargreaves test setup. […] The lowest and highest reflex latency scores were discarded and the average for left and right was calculated and plotted.
Compound A (175 mg/kg) was administered to mice 30 min after induction of a focal stroke via a permanent occlusion of the middle cerebral artery and compared to saline-treated animals and both motor- and sensory impairment was investigated using rotarod, grip strength and Hargreaves tests.

GFAP, CD14 and MMP9 mRNA = test: qPCR of molecular markers in peri-infarct tissue after photothrombotic focal ischemia; assay type: in vivo, mice; conditions: 3 days post-stroke
Method: Tissue from the peri-infarct area was collected and snap-frozen 12-72 hrs post stroke and RNA was extracted using a RNA mini kit (Qiagen) following the instructions from the manufacturer. Extracted RNA was treated with DNAse using Turbo DNA-free kit (Ambion), all according to the manufacturer's protocol. The reverse transcription was performed using gScript™ cDNA SuperMix (Quanta Biosciences, Gaithersburg, MD, USA) on a standard PCR machine (25° C. for 5 min, 42° C. for 30 min, 85° C. for 5 min) and cDNA stored at −20° C. until further processing.
qPCR was performed in 96-well plates (Agilent Technologies, Santa Clara, CA, USA) mixing PerfeCTa SYBR Green FastMix (Quanta Biosciences), nuclease free water (Qiagen, West Sussex, UK), and primers (TAG Copenhagen A/S (Copenhagen, Denmark). The PCR was performed with an initial denaturation step of 95° C. for 30 s, followed by 40 cycles of 5 s at 95° C., 60° C. for 15 s and 72° C. for 10 s. To assure single-product amplification, a dissociation curve analysis was performed consisting of 60 s at 95° C., 30 s at 55° C. and 30 s at 95° C. The qPCR was performed using the Agilent Mx3005P qPCR system (Agilent Technologies), and the corresponding MxPro software was used to determine the Ct values. The ΔCt values were calculated using 2 (Reference Ct−Target Ct).
To investigate the protective mechanisms against brain damage following a focal ischemic insult, mRNA expression levels of the markers GFAP, CD14 and MMP9 were measured in the brain tissue surrounding the ischemic core 3 days post-stroke.

[3] = system: permanent middle cerebral artery occlusion in C57BL/6J mice; test: pMCAO model of focal ischemia, infarct volume; assay type: in vivo; conditions: 175 mg/kg 30 min after pMCAO; day 3; saline 16.6
Method: The pMCAO study was performed using age-matched, young adult (7-8 weeks), male C57BL/6J mice (Taconic). Mice were housed in separate cages under diurnal lighting and given free access to food (1314 Altromin) and water. Mice were acclimatized for seven days prior to surgery in accordance with guidelines approved by the Danish Animal Ethical Committee.
Focal cerebral ischemia was made by permanent occlusion of the distal part of the left middle cerebral artery (MCA). Mice were anesthetized by injection of a mixture of Hypnorm (fentanyl citrate 0.315 mg/ml and fluanisone 10 mg/ml; Jansen-Cilag), Stesolid (5 mg/ml Diazepamum; Dumex) and distilled water (1:1:2; 0.20 ml/10 g body weight, s.c.). The mouse was placed on a 37±0.5° C. warm heating pad and a skin incision was made from eye to ear. […]
For quantification of the infarcted area, animals were perfused with saline and then with 4% paraformaldehyde (PFA) and the brain dissected out and submerged in 4% PFA for post-fixing overnight. […] Sections were mounted, stained for cresyl violet and the infarct volumes determined by measuring every 6th section through the entire infarct as described in Lie et al (2017). […] The glass slides were stored at −80° C. until further processing, and then Cresyl-Violet stained and quantified as described for the photothrombotic photochemical method. […]

[4] = 175 mg/kg 30 min after ischemia

O=C(O)C1=CC(O)CC1 (stereo not drawn) [Compound A, 3-hydroxycyclopent-1-enecarboxylic acid]
EC50 [1]: 8.2 mM | Hargreaves test, increased response time in affected forelimb [2]: not evident | rotarod test, learning ([2]; 48 hrs post-stroke, T1 to T2): steeper learning curve | grip strength deficit in affected fore limb ([2]; three days after stroke): did not demonstrate any deficit | MMP9 mRNA levels (GFAP, CD14 and MMP9 mRNA; 17.5 mg/kg, vs saline): significantly lower | CD14 mRNA levels (GFAP, CD14 and MMP9 mRNA; [4]): markedly lowered | MMP9 mRNA levels (GFAP, CD14 and MMP9 mRNA; [4]): markedly lowered | GFAP mRNA levels (GFAP, CD14 and MMP9 mRNA; peri-infarct tissue, vs saline): not different | infarct volume [3]: 12.3 mm^3
